The results in this text go back to patent publication US12304899B2, “Factor XI activation inhibitors” (Merck Sharp & Dohme LLC, priority 2019, dated 2025).

Each structure is given as a SMILES string.

The target of this experiment is T1, Human coagulation factor (F)XI (Homo sapiens, UniProt P03951).
T1 construct: purchased Haematologic Technologies Inc. (FXI); Enzyme Research Laboratories (FXIIa) HCXI-150 (FXI); HFXIIa (FXIIa)
T1 sequence (P03951 19-625): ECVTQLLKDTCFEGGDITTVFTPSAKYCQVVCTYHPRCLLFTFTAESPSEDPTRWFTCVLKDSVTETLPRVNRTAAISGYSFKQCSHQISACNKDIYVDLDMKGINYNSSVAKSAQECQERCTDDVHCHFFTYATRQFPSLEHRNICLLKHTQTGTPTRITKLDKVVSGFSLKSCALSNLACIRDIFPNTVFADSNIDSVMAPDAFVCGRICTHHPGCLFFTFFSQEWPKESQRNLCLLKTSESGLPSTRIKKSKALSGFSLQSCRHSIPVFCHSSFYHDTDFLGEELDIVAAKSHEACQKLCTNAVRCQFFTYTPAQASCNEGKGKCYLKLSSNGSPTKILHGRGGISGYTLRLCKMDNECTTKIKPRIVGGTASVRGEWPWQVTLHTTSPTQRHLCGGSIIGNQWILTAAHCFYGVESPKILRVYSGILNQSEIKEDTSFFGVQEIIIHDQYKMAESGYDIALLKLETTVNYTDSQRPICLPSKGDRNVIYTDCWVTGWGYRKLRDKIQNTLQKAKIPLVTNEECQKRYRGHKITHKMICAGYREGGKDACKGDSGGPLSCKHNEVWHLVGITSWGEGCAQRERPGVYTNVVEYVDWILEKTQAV
Put plainly: Inhibition of FXIIa mediated activation of FXI (activation of human Factor XI to XIa by human Factor α-XIIa). The settings on record: human FXI pre-incubated with compound 30 min at 22° C., activation by human FXIIa 60 min, z-GPR-AFC substrate fluorescence, 4 parameter logistic fit; read-out: Inhibition of FXIIa meditated activation of FXI. It is filed as biochemical. Here is the method:
Inhibition of FXIIa Mediated Activation of FXI
Activation of Human Factor XI to XIa by Human Factor α-XIIa
The assay was performed in 50 mM HEPES, 150 mM NaCl, 5 mM CaCl2, 0.1% PEG-8000, pH 7.4 buffer in black, flat-bottom, polystyrene microplates (Corning, Cat #3573). Serial dilutions (10-point, 3.333-fold) of the test compounds delivered as 10 mM DMSO stocks were prepared in the Labcyte Echo-qualified PP 384 well microplates (Labcyte, Cat #P-05525). Human coagulation factor (F)XI (Haematologic Technologies Inc., Cat #HCXI-150, concentration 46 nM, 19.5 uL) was pre-incubated with 0.5 uL of the test compounds for 30 min at 22° C. The activation was initiated by addition of 10 uL of human coagulation factor (F)XIIa (Enzyme Research Laboratories, Cat #HFXIIa, concentration 30 nM) and the reaction proceeded for 60 min at 22° C., after which it was quenched by addition of a selective inhibitor of FXIIa (Compound 54 in International Patent Publication WO2018093695) concentration 600 uM in DMSO, 1 uL). 10 min after the quench, 29 uL of z-GPR-AFC substrate (Sigma, Cat #C0980-10 MG, concentration 200 uM) was added into each well and the detection reaction proceeded for 60 min at 22° C. Fluorescence at 405/510 nm was measured in end-point mode using an Envision plate-reader (Perkin Elmer). IDBS Activity Base XE (ABase) analysis using 4 parameter logistic fit was performed to determine Minimum, Maximum, EC50, and Slope Factor for each compound.
Regarding `N#Cc1ccc(COc2ccc3nc(C(=O)N4CCC(n5cccn5)CC4)cc(C(=O)N4CCCCC4)c3c2)cc1` [Example 9, 4-(((2-(4-(1H-pyrazol-1-yl)-piperidine-1-carbonyl)-4-(piperidine-1-carbonyl)-quinolin-6-yl)oxy)methyl) benzonitrile], the EC50 was determined as 39.6 nM. As for `O=C(c1cc(C(=O)N2CCCCC2)c2cc(OCc3cn4ccccc4n3)ccc2n1)N1CCC(n2cccn2)CC1` [Example 25, (4-(1H-pyrazol-1-yl)piperidin-1-yl)(6-(imidazo[1,2-a]-pyridin-2-ylmethoxy)-4-(piperidine-1-carbonyl)quin-olin-2-yl)methanone], the figure is 34.2 nM. For the compound `N#CC1(n2cccn2)CCN(C(=O)c2cc(C(=O)N3CCCCC3)c3cc(OCc4ncc(C(F)(F)F)cc4Cl)ccc3n2)CC1` [Example 2, 1-(6-((3-chloro-5-(trifluoro-methyl)pyridin-2-yl)meth-oxy)-4-(piperidine-1-carbon-yl)quinoline-2-carbonyl)-4-(1H-pyrazol-1-yl)piperidine-4-carbonitrile], the EC50 came out at 32.2 nM. Regarding `O=C(c1cc(C(=O)N2CCCCC2)c2cc(OCc3nc4ccccc4s3)ccc2n1)N1CCC(c2ncc[nH]2)CC1` [Example 74, (4-(1H-imidazol-2-yl)-piperidin-1-yl)(6-(benzo-[d]thiazol-2-ylmethoxy)-4-(piperidine-carbonyl)-quinolin-2-yl)methanone], the EC50 came out at 32.6 nM. The result for `O=C(c1cc(C(=O)N2CCCCC2)c2cc(OCc3nc4ccccc4s3)ccc2n1)N1CCN(CC(F)(F)F)CC1` [Example 65, (6-(benzo[d]thiazol-2-yl-methoxy)-2-(4-(2,2,2-trifluoroethyl)piperazine-1-carbonyl)quinolin-4-yl)-(piperidin-1-yl)methanone] reads 19.1 nM; that for `N#Cc1ccc(COc2ccc3nc(C(=O)N4CCC(n5cccn5)CC4)cc(C(=O)N4CCCCC4)c3c2)c(F)c1` [Example 16, 4-(((2-(4-(1H-pyrazol-1-yl)-piperidine-1-carbonyl)-4-(piperidine-1-carbonyl)-quinolin-6-yl)oxy)methyl)-3-fluorobenzonitrile], 32.9 nM.

For `NC(=O)C1(c2ccccc2)CCN(C(=O)c2cc(C(=O)N3CCCCC3)c3cc(OCc4nc5ccccc5s4)ccc3n2)CC1` [Example 59, 1-(6-(benzo[d]thiazol-2-yl-methoxy)-4-(piperidine-1-carbonyl)quinoline-2-car-bonyl)-4-phenylpiperidine-4-carboxamide], the EC50 is 60 nM.

As to `O=C(c1cc(C(=O)N2CCCCC2)c2cc(OCc3nc4ccccc4s3)ccc2n1)N1CCC(n2ccnn2)CC1` [Example 64, (4-(1H-1,2,3-triazol-1-yl)-piperidin-1-yl)(6-(benzo-[d]thiazol-2-ylmethoxy)-4-(piperidine-1-carbonyl)-quinolin-2-yl)methanone], the EC50 was found to be 42.1 nM. As for `CN(C(=O)c1cc(C(=O)N2CCC(n3cccn3)CC2)nc2ccc(OCc3nc4ccccc4s3)cc12)C1CCC1` [Example 55, 2-(4-(1H-pyrazol-1-yl)piperi-dine-1-carbonyl)-6-(benzo[d]-thiazol-2-ylmethoxy)-N-cyclo-butyl-N-methylquinoline-4-carboxamide], the figure is 366 nM. The result for `Cc1c(COc2ccc3nc(C(=O)N4CCC(n5cccn5)CC4)cc(C(=O)N4CCCCC4)c3c2)ccc2c1COC2=O` [Example 18, 5-(((2-(4-(1H-pyrazol-1-yl)-piperidine-1-carbonyl)-4-(piperidine-1-carbonyl)-quinolin-6-yl)oxy)methyl)-4-methylisobenzofuran-1(3H)-one] reads 21.9 nM; that for `N#CC1(c2ccccc2)CCN(C(=O)c2cc(C(=O)N3CCCCC3)c3cc(OCc4noc5ccccc45)ccc3n2)CC1` [Example 51, 1-(6-(benzo[d]isoxazol-3-yl-methoxy)-4-(piperidine-1-carbonyl)quinoline-2-carbon-yl)-4-phenylpiperidine-4-carbonitrile], 40.5 nM. As for `O=C(c1cc(C(=O)N2CCCCC2)c2cc(OCc3ccc4nonc4c3)ccc2n1)N1CCC(n2cccn2)CC1` [Example 14, (4-(1H-pyrazol-1-yl)piperidin-1-yl)(6-(benzo[c][1,2,5]-oxadiazol-5-ylmethoxy)-4-(piperidine-1-carbonyl)-quinolin-2-yl)methanone], the EC50 amounted to 14.7 nM.

For `O=C(c1cc(C(=O)N2CCCCC2)c2cc(OCc3nc4ccccc4o3)ccc2n1)N1CCC(n2cccn2)CC1` [Example 23, (4-(1H-pyrazol-1-yl)piperidin-1-yl)(6-(benzo[d]oxazol-2-ylmethoxy)-4-(piperidine-1-carbonyl)quinolin-2-yl) methanone], the EC50 was determined as 36.6 nM. As for `O=C(c1cc(C(=O)N2CCCCC2)c2cc(OCc3ncc(C(F)(F)F)cc3Cl)ccc2n1)N1CCC(n2cccn2)CC1` [Example 12, (4-(1H-pyrazol-1-yl)piperidin-1-yl)(6-((3-chloro-5-(trifluoro-methyl)pyridin-2-yl)methoxy)-4-(piperidine-1-carbonyl)-quinolin-2-yl)methanone], the figure is 16.8 nM; as for `C[C@]1(O)CCN(C(=O)c2cc(C(=O)N3CCCCC3)c3cc(OCc4nc5ccccc5s4)ccc3n2)C1` [Example 61, (S)(6-(benzo[d]thiazol-2-ylmethoxy)-2-(3-hydroxy-3-methylpyrrolidine-1-carbonyl)quinolin-4-yl)-(piperidin-1-yl)methanone], 131 nM. As for `O=C(c1cc(C(=O)N2CCCCC2)c2cc(OCc3cc4ccccn4n3)ccc2n1)N1CCC(n2cccn2)CC1` [Example 22, (4-(1H-pyrazol-1-yl)piperidin-1-yl)(4-(piperidine-1-carbon-yl)-6-(pyrazolo[1,5-a]pyridin-2-ylmethoxy)quinolin-2-yl) methanone], the figure is 44.6 nM; as for `N#CC1(n2cccn2)CCN(C(=O)c2cc(C(=O)N3CCCCC3)c3cc(OCc4nc5ccccc5s4)ccc3n2)CC1` [Example 58, 1-(6-(benzo[d]thiazol-2-ylmethoxy)-4-(piperidine-1-carbonyl)quinoline-2-carbonyl)-4-(1H-pyrazol-1-yl)piperidine-4-carbonitrile], 33.7 nM.

`N#Cc1cc(F)ccc1COc1ccc2nc(C(=O)N3CCC(C#N)(c4ccccc4)CC3)cc(C(=O)N3CCCCC3)c2c1` [Example 45, 1-(6-((2-cyano-4-fluoro-benzyl)oxy)-4-(piperidine-1-carbonyl)quinoline-2-carbon-yl)-4-phenylpiperidine-4-carbonitrile]: the EC50 came to 36.9 nM.

For `N#CC1(c2ccccc2)CCN(C(=O)c2cc(C(=O)N3CCCCC3)c3cc(OCc4nc5ccccc5s4)ccc3n2)CC1` [Example 49, 1-(6-(benzo[d]thiazol-2-yl-methoxy)-4-(piperidine-1-carbonyl)quinoline-2-carbonyl)-4-phenylpiperi-dine-4-carbonitrile], the EC50 was determined as 15 nM. `Cn1nnc2cc(COc3ccc4nc(C(=O)N5CCC(n6cccn6)CC5)cc(C(=O)N5CCCCC5)c4c3)ccc21` [Example 15, (4-(1H-pyrazol-1-yl)piperidin-1-yl)(6-((1-methyl-1H-benzo-[d][1,2,3]triazol-5-yl)methoxy)-4-(piperidine-1-carbonyl)-quinolin-2-yl)methanone]: the EC50 came out at 23.7 nM.
